Laboratory results from US7842808B2, “Anti-migraine spirocycles” (Bristol-Myers Squibb Company, priority 2002, dated 2010).
Like-named read-outs stand apart in the source and are kept apart here.

How the values were obtained:
[1] = molecular target: T1, human CGRP receptor (SK-N-MC cells) (Homo sapiens, UniProt O60894+Q16602); assay: Cyclic AMP Assay, functional antagonism of CGRP-induced cyclic AMP formation; assay type: cell-based
T1 construct: SK-N-MC cells that endogenously express the human CGRP receptor; endogenous in cells; host or cells: SK-N-MC cells
Procedure: Functional Antagonism. Antagonism of the compounds of invention was determined by measuring the formation of cyclic AMP (adenosine 3′5′-cyclic monophosphate) in SK-N-MC cells that endogenously express the human CGRP receptor. […] For cyclic AMP measurements SK-N-MC cells were incubated with 0.3 nM CGRP alone or in the presence of various concentrations of the compounds of invention for 30 min at room temperature. […] Cyclic AMP was extracted using the lysis reagent and its concentration was determined by radioimmunoassay using RPA559 cAMP SPA Direct Screening Assay Kit (Amersham Pharmacia Biotech). IC50 values were calculated using Excel fit.

[2] = molecular target: T2, CGRP receptor (SK-N-MC cell membranes) (Homo sapiens, UniProt O60894+Q16602); assay: CGRP Binding Assay ([125I]-CGRP radioligand binding, SK-N-MC homogenate)
T2 construct: endogenous in cells; host or cells: SK-N-MC cells (membrane homogenate)

[3] = SK-N-MC cells, 0.3 nM CGRP, read-out: cAMP Function IC50
[4] = displacement of [125I]-CGRP, SK-N-MC homogenate, read-out: CGRP binding IC50

T2 sequence (Q16602 23-461): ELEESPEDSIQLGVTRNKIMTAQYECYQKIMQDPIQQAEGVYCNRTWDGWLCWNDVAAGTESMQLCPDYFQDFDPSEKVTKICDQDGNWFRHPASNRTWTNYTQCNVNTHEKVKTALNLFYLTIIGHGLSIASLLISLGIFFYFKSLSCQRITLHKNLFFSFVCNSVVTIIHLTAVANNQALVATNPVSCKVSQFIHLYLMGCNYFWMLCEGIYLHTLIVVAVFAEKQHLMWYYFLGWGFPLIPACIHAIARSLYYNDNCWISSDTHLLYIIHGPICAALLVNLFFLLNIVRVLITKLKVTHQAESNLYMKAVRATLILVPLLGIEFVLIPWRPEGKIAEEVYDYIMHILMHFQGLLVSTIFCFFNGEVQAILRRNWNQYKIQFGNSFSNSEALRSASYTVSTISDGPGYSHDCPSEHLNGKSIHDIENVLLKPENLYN
T2 sequence (O60894 27-148): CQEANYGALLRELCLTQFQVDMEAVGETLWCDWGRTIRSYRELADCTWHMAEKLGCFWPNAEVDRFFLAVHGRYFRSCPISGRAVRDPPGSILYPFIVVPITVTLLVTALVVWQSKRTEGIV
T1 sequence (Q16602 23-461): as the sequence (Q16602 23-461) above
T1 sequence (O60894 27-148): as the sequence (O60894 27-148) above

`Cc1cc(CC(NC(=O)N2CCC3(CC2)N=C(c2ccccc2)NC3=O)C(=O)N2CCCCC2)cc2cn[nH]c12` (racemic) [Example 35, (±)-4-Oxo-2-phenyl-1,3,8-triaza-spiro[4,5]dec-1-ene-8-carboxylic acid {1-(7-methyl-1H-indazol-5-yl methyl)-2-[1-piperidinylyl]-2-oxo-ethyl}-amide] was tested, and the IC50 [1, 3] was 10 to 100 nM and the IC50 [2, 4] was 10 to 100 nM.

`Cc1cc(CC(NC(=O)N2CCC(N3Cc4ccccc4NC3=O)CC2)C(=O)O)cc2cn[nH]c12` (racemic) [Example 15, (±)-3-(7-Methyl-1H-indazol-5-yl)-2-{[4-(2-oxo-1,4-dihydro-2H-quinazolin-3-yl)-piperidine-1-carbonyl]-amino}-propionic acid] gave an IC50 [1, 3] of 100 to 1000 nM and an IC50 [2, 4] of 100 to 1000 nM.

With `O=C(C[C@H](Nc1cc(Cl)ncn1)C(=O)N1CCC(N2CCCCC2)CC1)N1CCC(N2Cc3ccccc3NC2=O)CC1` [Example 88, (L)-1-[1,4′]Bipiperidinyl-1′-yl-2-(6-chloro-pyrimidin-4-ylamino)-4-[4-(2-oxo-1,4-dihydro-2H-quinazolin-3-yl)-piperidin-1-yl]-butane-1,4-dione] the IC50 [1, 3] was 10 to 100 nM and the IC50 [2, 4] was 100 to 1000 nM.

Compound `Cc1cc(CC(NC(=O)N2CCC3(CC2)NC(=O)Nc2ccccc23)C(=O)N2CCCCC2)cc2cn[nH]c12` (racemic) [Example 24, (±)-1-(7-Methyl-1H-indazol-5-ylmethyl)-2-(1-piperidinyl)-2-oxoethyl]-2′,3′-dihydro-2′-oxospiro-[piperidine-4,4′-(1H)-quinazoline]-1-carboxamide] has an IC50 [1, 3] of 10 to 100 nM and an IC50 [2, 4] of 10 to 100 nM.

Work on `O=C(CC(Cc1ccc2[nH]ncc2c1)C(=O)N1CCC2(CC1)OCCO2)N1CCC(N2Cc3ccccc3NC2=O)CC1` (racemic) [Example 81, (±)-1-(1,4-Dioxa-8-aza-spiro[4.5]dec-8-yl)-2-(1H-indazol-5-ylmethyl)-4-[4-(2-oxo-1,4-dihydro-2H-quinazolin-3-yl)-piperidin-1-yl]-butane-1,4-dione] yielded an IC50 [1] of 100 to 1000 nM and an IC50 [2, 4] of 10 to 100 nM.

In the case of `CC(C)CN1CCN(C(=O)C(Cc2ccc3[nH]ccc3c2)NC(=O)N2CCC(n3c(=O)[nH]c4ccccc43)CC2)CC1` (racemic) [Example 7, (±)-4-(2-Oxo-2,3-dihydro-benzoimidazol-1-yl)-piperidine-1-carboxylic acid[1-(1H-indol-5-ylmethyl)-2-(4-isobutyl-piperazin-1-yl)-2-oxo-ethyl]-amide], the IC50 [1, 3] is reported as 100 to 1000 nM and the IC50 [2, 4] is reported as 100 to 1000 nM.

Work on `O=C(C[C@H](Nc1nc(Cl)nc2[nH]cnc12)C(=O)N1CCC(N2CCCCC2)CC1)N1CCC(N2Cc3ccccc3NC2=O)CC1` [Example 89, (L)-1-[1,4′]Bipiperidinyl-1′-yl-2-(2-chloro-9H-purin-6-ylamino)-4-[4-(2-oxo-1,4-dihydro-2H-quinazolin-3-yl)-piperidin-1-yl]-butane-1,4-dione] yielded an IC50 [1, 3] of 10 to 100 nM and an IC50 [2, 4] of 100 to 1000 nM.

Work on `O=C(N[C@H](Cc1csc2ccccc12)C(=O)N1CCC(N2CCCCC2)CC1)N1CCC2(CC1)Cc1ccccc1NC2=O` [Example 61, (R)-1-Oxo-3,4-benzo-2,9-diaza-spiro[5.5]undec-3-ene-9-carboxylic acid (1-benzo[b]thiophen-3-ylmethyl-2-[1,4′]bipiperidinyl-1′-yl-2-oxo-ethyl)-amide] yielded an IC50 [1, 3] of 100 to 1000 nM and an IC50 [2, 4] of 100 to 1000 nM.

`O=C(NC(Cc1ccc2[nH]ncc2c1)C(=O)N1CCC2(CC1)OCCO2)N1CCC(N2Cc3ccccc3NC2=O)CC1` (racemic) [Example 11, (±)-4-(2-Oxo-1,4-dihydro-2H-quinazolin-3-yl)-piperidine-1-carboxylic acid[2-(1,4-dioxa-8-aza-spiro[4.5]dec-8-yl)-1-(1H-indazol-5-ylmethyl)-2-oxo-ethyl]-amide] was tested, and the IC50 [1] was 10 to 100 nM and the IC50 [2, 4] was 10 to 100 nM.

`O=C(NC(Cc1ccc2[nH]ncc2c1)C(=O)N1CCC2(CC1)OCCO2)N1CCC(n2c(=O)[nH]c3ccccc32)CC1` (racemic) [Example 10, (±)-4-(2-Oxo-2,3-dihydro-benzoimidazol-1-yl)-piperidine-1-carboxylic acid[2-(1,4-dioxa-8-aza-spiro[4.5]dec-8-yl)-1-(1H-indazol-5-ylmethyl)-2-oxo-ethyl]-amide] gave an IC50 [1] of 10 to 100 nM and an IC50 [2] of 100 to 1000 nM.

Work on `Cc1nc2cc(C[C@@H](NC(=O)N3CCC(N4Cc5ccccc5NC4=O)CC3)C(=O)N3CCC(N4CCCCC4)CC3)ccc2[nH]1` [Example 46, (R)-4-(2-Oxo-1,4-dihydro-2H-quinazolin-3-yl)-piperidine-1-carboxylic acid[2-[1,4′]bipiperidinyl-1′-yl-1-(2-methyl-1H-benzoimidazol-5-ylmethyl)-2-oxo-ethyl]-amide] yielded an IC50 [1, 3] of 10 to 100 nM and an IC50 [2, 4] of 10 to 100 nM.

`Cc1cc(CC(NC(=O)N2CCC3(CC2)OC(=O)Nc2ccccc23)C(=O)N(C)C)cc2cn[nH]c12` (racemic) [Example 27, (±)-[1-Dimethylcarbamoyl-2-(7-methyl-1H-indazol-5-yl)-ethyl]-1′,2′-dihydro-2′-oxospiro-[4H-3′,1-benzoxazine-4,4′-piperidine]-1-carboxamide] showed an IC50 [1, 3] of 100 to 1000 nM and an IC50 [2, 4] of 10 to 100 nM.

`O=C(NC(Cc1ccc2[nH]ncc2c1)C(=O)N1CCC(N2CCCCC2)CC1)N1CCC(n2c(=O)[nH]c3ccccc32)CC1` (racemic) [Example 4, (±)-4-(2-Oxo-2,3-dihydro-benzoimidazol-1-yl)-piperidine-1-carboxylic acid[2-[1,4′]bipiperidinyl-1′-yl-1-(1H-indazol-5-ylmethyl)-2-oxo-ethyl]-amide] gave an IC50 [1, 3] of 10 to 100 nM and an IC50 [2, 4] of 10 to 100 nM.

`CC(C)(C)OC(=O)n1ncc2cc(CC(CC(=O)N3CCC(N4Cc5ccccc5NC4=O)CC3)C(=O)N3CCC(N4CCCCC4)CC3)ccc21` (racemic) [Example 83, (±)-5-{2-([1,4′]Bipiperidinyl-1′-carbonyl)-4-oxo-4-[4-(2-oxo-1,4-dihydro-2H-quinazolin-3-yl)-piperidin-1-yl]-butyl}-indazole-1-carboxylic acid tert-butyl ester] gave an IC50 [1, 3] of 100 to 1000 nM and an IC50 [2, 4] of 10 to 100 nM.

Work on `Cc1cc(CC(CC(=O)N2CCC(N3Cc4ccccc4NC3=O)CC2)C(=O)N2CCCCC2)cc2cn[nH]c12` (racemic) [Example 78, (±)-2-(7-Methyl-1H-indazol-5-ylmethyl)-4-[4-(2-oxo-1,4-dihydro-2H-quinazolin-3-yl)-piperidin-1-yl]-1-piperidin-1-yl-butane-1,4-dione] yielded an IC50 [1, 3] of less than 10 nM and an IC50 [2, 4] of less than 10 nM.

With `Cc1cc(CC(NC(=O)N2CCC3(CC2)N=C(c2ccccc2)NC3=O)C(=O)N2CCC(N3CCCCC3)CC2)cc2cn[nH]c12` (racemic) [Example 34, (±)-4-Oxo-2-phenyl-1,3,8-triaza-spiro[4,5]dec-1-ene-8-carboxylic acid {1-(7-methyl-1H-indazol-5-yl methyl)-2-[1,4]bipiperidinyl-1′-yl-2-oxo-ethyl}-amide] the IC50 [1, 3] was less than 10 nM and the IC50 [2, 4] was less than 10 nM.

With `O=C1Nc2ccccc2C2(CCN(C(=O)CC(Cc3ccc4[nH]ncc4c3)C(=O)N3CCC(N4CCCCC4)CC3)CC2)O1` (racemic) [Example 79, (±)-1-[1,4′]Bipiperidinyl-1′-yl-2-(1H-indazol-5-ylmethyl)-4-[1′,2′-dihydro-2′-oxospiro-[4H-3′,1-benzoxazine-4,4′-piperidinyl]-butane-1,4-dione] the IC50 [1, 3] was 100 to 1000 nM and the IC50 [2, 4] was 10 to 100 nM.

Work on `CC1(C)CN(CC(NC(=O)N2CCC(N3Cc4ccccc4NC3=O)CC2)C(=O)N2CCC(N3CCCCC3)CC2)Cc2cn[nH]c21` (racemic) [Example 56, (±)-4-(2-Oxo-1,4-dihydro-2H-quinazolin-3-yl)-piperidine-1-carboxylic acid[2-[1,4′]bipiperidinyl-1′-yl-1-(7,7-dimethyl-1,4,6,7-tetrahydro-pyrazolo[4,3-c]pyridin-5-ylmethyl)-2-oxo-ethyl]-amide] yielded an IC50 [1, 3] of less than 10 nM and an IC50 [2, 4] of less than 10 nM.

Work on `O=C1NCC2(CCN(C(=O)N[C@H](Cc3csc4ccccc34)C(=O)N3CCC(N4CCCCC4)CC3)CC2)c2ccccc21` [Example 63, N-[(1R)-1-(Benzo[b]thien-3-ylmethyl)-2-[1,4-bipiperidin]-1-yl-2-oxoethyl]-2′,3′-dihydro-1-oxospiro-[piperidine-4,4′(1H)-isoquinoline]-1-carboxamide] yielded an IC50 [1, 3] of 100 to 1000 nM and an IC50 [2, 4] of 100 to 1000 nM.

In the case of `CC(C)CN1CCN(C(=O)C(Cc2ccc3[nH]ncc3c2)NC(=O)N2CCC(n3c(=O)[nH]c4ccccc43)CC2)CC1` (racemic) [Example 9, (±)-4-(2-Oxo-2,3-dihydro-benzoimidazol-1-yl)-piperidine-1-carboxylic acid[1-(1H-indazol-5-ylmethyl)-2-(4-isobutyl-piperazin-1-yl)-2-oxo-ethyl]-amide], the IC50 [1, 3] is reported as 10 to 100 nM and the IC50 [2, 4] is reported as 10 to 100 nM.

Work on `CN(C)C(=O)C(CC(=O)N1CCC(N2Cc3ccccc3NC2=O)CC1)Cc1ccc2[nH]ncc2c1` (racemic) [Example 82, (±)-2-(1H-Indazol-5-ylmethyl)-N,N-dimethyl-4-oxo-4-[4-(2-oxo-1,4-dihydro-2H-quinazolin-3-yl)-piperidin-1-yl]-butyramide] yielded an IC50 [1, 3] of 100 to 1000 nM and an IC50 [2, 4] of 10 to 100 nM.

Work on `O=C(NC(Cc1ccc2[nH]ncc2c1)C(=O)N1CCNCC1)N1CCC(N2Cc3ccccc3NC2=O)CC1` (stereo not shown) [Example 39, 4-(2-Oxo-1,4-dihydro-2H-quinazolin-3-yl)-piperidine-1-carboxylic acid[1-(1H-indazol-5-ylmethyl)-2-oxo-2-piperazin-1-yl-ethyl]-amide] yielded an IC50 [1, 3] of 100 to 1000 nM and an IC50 [2, 4] of 100 to 1000 nM.

Work on `Cc1cc(CC(CC(=O)N2CCC(N3Cc4ccccc4NC3=O)CC2)C(=O)N2CCOCC2)cc2cn[nH]c12` (racemic) [Example 75, (±)-2-(7-Methyl-1H-indazol-5-ylmethyl)-1-morpholin-4-yl-4-[4-(2-oxo-1,4-dihydro-2H-quinazolin-3-yl)-piperidin-1-yl]-butane-1,4-dione] yielded an IC50 [1, 3] of 10 to 100 nM and an IC50 [2, 4] of less than 10 nM.
